# Assay results: ChEMBL document CHEMBL1201862, “PubChem BioAssay data set” (2004)
# Active and inactive are the calls of the source.
# Assays:
# [1] = target: Disintegrin and metalloproteinase domain-containing protein 17 (Homo sapiens, UniProt P78536); assay: exosite inhibitors of ADAM17, dose response, biochemical (AID 743260)
# [2] = ADAM10 protease inhibitors, dose response, selectivity assay for ADAM17 exosite inhibitor project, biochemical, FRET peptide substrate, recombinant human ADAM10 (AID 743259);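 also: ADAM10 enzyme cleaving a FRET peptide substrate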
# ORF 73 = ORF 73 (Human herpesvirus 8, UniProt O40947); assay: inhibitors of C-LANA binding to LBS DNA, dose response, biochemical, fluorescence polarization, cherry-picked samples (AID 504725); design: species or system Human gammaherpesvirus 8;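 also: fluorescence polarization of a labeled DNA duplex reporting LANA DNA binding; potency is for inhibitors that block LANA binding to the DNA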
# Nonstructural protein 1 = Nonstructural protein 1 (Influenza A virus, UniProt Q194T2); type: functional, Influenza A virus (A/California/07/2009(H1N1))
# Genome polyprotein = Genome polyprotein (dengue virus type 2, UniProt P29990); assay: Dengue-2 NS5 methyltransferase inhibitors, primary screen, biochemical, confirmation dose response (AID 588689); type: functional
# [3] = target: T1, Small ubiquitin-related modifier 2 (Homo sapiens, UniProt P61956); assay: SUMO2–SIM peptide binding inhibitors, dose response, selectivity assay for SUMO1 interaction inhibitor project, biochemical, fluorescence polarization, uHTS hits (AID 624385); type: functional; conditions: read-out: IC50_Mean
# [4] = target: T2, Small ubiquitin-related modifier 1 (Homo sapiens, UniProt P63165); assay: inhibitors of SUMO1 peptide binding, dose response, biochemical, fluorescence polarization, uHTS hits (AID 624382); type: functional; conditions: read-out: IC50_Mean
# [5] = target: T1, Small ubiquitin-related modifier 2; assay: inhibitors of SUMO2 protein-protein interaction, dose response, selectivity assay for SUMO1 interaction inhibitor project, biochemical, FRET, human SUMO2, uHTS hits (AID 624384); type: functional; conditions: read-out: IC50_Mean
# Fatty acid synthase [6] = target: T3, Fatty acid synthase (Homo sapiens, UniProt P49327); assay: FAS thioesterase domain inhibitors, dose response, biochemical, endpoint fluorescence intensity, uHTS hits (AID 624327); type: functional;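 also: fluorescence from hydrolysis of an O-methyl fluorescein acyl ester substrate by the enzyme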
# [7] = target: T2, Small ubiquitin-related modifier 1; assay: inhibitors of SUMO1 partner interactions, dose response, biochemical, FRET (AID 624383); type: functional; conditions: read-out: IC50_Mean
# [8] = target: T4, Sentrin-specific protease 8 (Homo sapiens, UniProt Q96LD8); type: functional
# T4 sequence (Q96LD8 whole entry): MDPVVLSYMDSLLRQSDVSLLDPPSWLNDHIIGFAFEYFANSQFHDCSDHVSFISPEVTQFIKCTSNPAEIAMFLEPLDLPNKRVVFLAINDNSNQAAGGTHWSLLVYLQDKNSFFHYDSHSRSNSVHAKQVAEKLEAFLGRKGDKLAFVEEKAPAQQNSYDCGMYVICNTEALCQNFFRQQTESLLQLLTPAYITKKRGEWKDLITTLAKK
# [9] = target: T4, Sentrin-specific protease 8; type: functional; remark: listed apart in the source
# [10] = target: T5, Rac GTPase-activating protein 1 (Homo sapiens, UniProt Q9H0H5); assay: MgcRacGAP GTPase-activating activity inhibitors, confirmation, biochemical, ADP Hunter fluorescence, primary and confirmatory (AID 624330); type: functional
# T5 sequence (Q9H0H5 whole entry): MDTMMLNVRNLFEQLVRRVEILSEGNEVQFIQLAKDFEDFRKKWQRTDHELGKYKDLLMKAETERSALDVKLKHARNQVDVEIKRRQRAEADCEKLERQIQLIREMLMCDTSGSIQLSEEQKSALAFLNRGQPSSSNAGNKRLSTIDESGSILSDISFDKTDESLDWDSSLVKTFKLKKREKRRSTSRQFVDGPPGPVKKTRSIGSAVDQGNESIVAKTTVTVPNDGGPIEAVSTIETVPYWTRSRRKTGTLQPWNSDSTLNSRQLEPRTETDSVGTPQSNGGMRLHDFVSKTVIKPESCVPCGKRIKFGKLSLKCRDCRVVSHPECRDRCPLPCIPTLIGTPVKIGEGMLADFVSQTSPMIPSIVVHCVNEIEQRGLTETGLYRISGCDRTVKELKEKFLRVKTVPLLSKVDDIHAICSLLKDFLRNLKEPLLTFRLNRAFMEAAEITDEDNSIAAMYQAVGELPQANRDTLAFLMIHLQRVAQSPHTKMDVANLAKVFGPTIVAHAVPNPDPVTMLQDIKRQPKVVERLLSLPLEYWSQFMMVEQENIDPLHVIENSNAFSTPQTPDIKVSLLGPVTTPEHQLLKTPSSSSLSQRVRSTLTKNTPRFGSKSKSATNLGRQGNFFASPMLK
# Fatty acid synthase [11] = target: T3, Fatty acid synthase; assay: FAS thioesterase domain inhibitors, dose response, biochemical, kinetic fluorescence intensity (AID 624326); type: functional;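 also: rate of fluorescence rise from hydrolysis of a fluorogenic O-methyl fluorescein ester substrate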
# [12] = target: Matrix metalloproteinase-14 (Homo sapiens, UniProt P50281); assay: Dose Response confirmation of uHTS hits for a small molecule inhibitors of MT1-MMP activation in a fluorescence assay set 1.; type: functional
# [13] = target: T6, Histone-lysine N-methyltransferase NSD2 (Homo sapiens, UniProt O96028); type: biochemical
# T6 sequence (O96028 whole entry): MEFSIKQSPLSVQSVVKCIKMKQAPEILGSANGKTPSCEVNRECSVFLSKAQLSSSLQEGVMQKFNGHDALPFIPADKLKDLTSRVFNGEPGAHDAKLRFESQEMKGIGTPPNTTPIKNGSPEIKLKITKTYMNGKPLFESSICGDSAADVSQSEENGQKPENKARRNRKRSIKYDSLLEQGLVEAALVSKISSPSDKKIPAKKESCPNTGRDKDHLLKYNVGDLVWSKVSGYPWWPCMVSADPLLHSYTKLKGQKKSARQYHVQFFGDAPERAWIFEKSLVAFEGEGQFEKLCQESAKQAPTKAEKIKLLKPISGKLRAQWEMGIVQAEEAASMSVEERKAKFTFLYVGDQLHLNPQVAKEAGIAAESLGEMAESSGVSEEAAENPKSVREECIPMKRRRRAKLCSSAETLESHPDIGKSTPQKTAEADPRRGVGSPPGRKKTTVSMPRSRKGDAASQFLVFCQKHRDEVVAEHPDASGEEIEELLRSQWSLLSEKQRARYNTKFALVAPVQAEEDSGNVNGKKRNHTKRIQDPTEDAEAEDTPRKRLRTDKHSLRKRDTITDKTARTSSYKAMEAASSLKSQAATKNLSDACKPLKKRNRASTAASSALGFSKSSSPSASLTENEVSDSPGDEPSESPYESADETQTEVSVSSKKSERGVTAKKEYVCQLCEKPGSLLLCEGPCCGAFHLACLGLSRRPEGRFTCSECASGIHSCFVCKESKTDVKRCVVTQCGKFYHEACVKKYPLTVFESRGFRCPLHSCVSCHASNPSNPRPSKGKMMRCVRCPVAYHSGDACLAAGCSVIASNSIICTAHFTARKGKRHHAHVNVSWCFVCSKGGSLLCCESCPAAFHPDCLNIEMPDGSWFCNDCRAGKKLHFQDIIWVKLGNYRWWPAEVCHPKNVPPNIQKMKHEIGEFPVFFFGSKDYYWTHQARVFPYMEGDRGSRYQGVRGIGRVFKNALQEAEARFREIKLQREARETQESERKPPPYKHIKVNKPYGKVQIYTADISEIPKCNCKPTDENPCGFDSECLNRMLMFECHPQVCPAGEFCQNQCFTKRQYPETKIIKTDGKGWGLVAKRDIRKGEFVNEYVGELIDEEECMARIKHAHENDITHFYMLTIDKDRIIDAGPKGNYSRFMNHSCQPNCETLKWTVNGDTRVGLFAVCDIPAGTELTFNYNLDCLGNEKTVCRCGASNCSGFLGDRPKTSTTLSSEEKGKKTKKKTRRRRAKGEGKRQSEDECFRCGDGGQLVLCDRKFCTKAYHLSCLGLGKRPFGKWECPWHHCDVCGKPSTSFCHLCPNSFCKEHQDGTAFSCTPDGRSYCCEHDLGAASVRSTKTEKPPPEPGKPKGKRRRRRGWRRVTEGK
# [14] = target: T7, Polyadenylate-binding protein 1 (Homo sapiens, UniProt P11940); assay: PABP1 MLLE–PAM2 interaction inhibitors, dose response, miRNA deadenylation inhibitor project, biochemical, fluorescence polarization, Cy5-PAM2 peptide, secondary (AID 602260); type: functional; conditions: read-out: IC50_Mean
# [15] = target: T7, Polyadenylate-binding protein 1; assay: PABP1 MLLE–PAM2 binding inhibitor potency, dose response, biochemical, fluorescence polarization, FITC-PAM2 peptide (AID 602259); type: functional; conditions: read-out: IC50_Mean
# [16] = human group III sPLA2 inhibitors, dose response, biochemical, QFRET, IC50 (AID 743457);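 also: green fluorescence rise as the enzyme cleaves BODIPY PC-A2 in liposomes; potency for inhibition of the enzyme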
# HeLa = assay: HeLa cell cytotoxicity, dose response, cytotoxicity control, ATP luminescence, cherry-pick samples (AID 687004); type: functional, cell-based; conditions: Homo sapiens
# HEK293 = assay: HEK293T cell cytotoxicity, dose response, cytotoxicity control, ATP luminescence, cherry-pick samples (AID 687005); type: functional, cell-based; conditions: Homo sapiens;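 also: cells exposed to compound for 48 hours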
# [17] = HEK293 Cytotoxicity Assay Measured in Cell-Based System Using Plate Reader - 7071-01_Inhibitor_Dose_CherryPick_Activity_Set2.; type: functional
# A549 = assay: A549 cell toxicity, dose response, cytotoxicity control, plate reader, cherry-pick samples (AID 687028); type: functional, cell-based; conditions: Homo sapiens
# NS3 = NS3 (Hepatitis C virus, UniProt A3EZJ3); assay: HCV NS3 helicase inhibitor potency, dose response, biochemical, fluorescence polarization, ChemBridge library (AID 743264)
# [18] = T. cruzi growth inhibition in host cells, dose response, cell-based, plate reader, dry powder, set 2 (AID 652275); type: functional
# [19] = A549 cell cytotoxicity, dose response, cytotoxicity control, plate reader, cherry-pick, antagonist series (AID 743412); type: functional, cell-based
# [20] = LGR2 antagonists, dose response, cell-based, HEK293, CRE-luciferase reporter, cherry pick (AID 743342); type: functional
# T7 sequence (P11940 whole entry): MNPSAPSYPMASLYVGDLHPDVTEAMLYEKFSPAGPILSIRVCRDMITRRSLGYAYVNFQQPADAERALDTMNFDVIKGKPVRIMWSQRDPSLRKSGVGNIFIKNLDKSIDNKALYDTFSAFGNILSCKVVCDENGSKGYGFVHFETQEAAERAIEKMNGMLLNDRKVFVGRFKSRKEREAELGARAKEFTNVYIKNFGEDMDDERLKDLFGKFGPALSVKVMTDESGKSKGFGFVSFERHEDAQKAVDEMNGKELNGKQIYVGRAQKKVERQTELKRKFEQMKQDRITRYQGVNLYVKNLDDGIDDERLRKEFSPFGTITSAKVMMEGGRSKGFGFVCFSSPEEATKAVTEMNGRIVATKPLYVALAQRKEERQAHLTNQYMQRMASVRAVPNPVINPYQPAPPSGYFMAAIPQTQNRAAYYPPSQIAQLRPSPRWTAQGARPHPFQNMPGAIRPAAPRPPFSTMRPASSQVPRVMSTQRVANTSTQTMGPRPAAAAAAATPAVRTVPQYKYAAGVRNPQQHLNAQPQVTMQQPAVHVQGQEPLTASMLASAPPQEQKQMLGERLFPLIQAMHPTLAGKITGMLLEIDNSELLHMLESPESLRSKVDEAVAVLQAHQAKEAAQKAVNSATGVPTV
# T2 sequence (P63165 whole entry): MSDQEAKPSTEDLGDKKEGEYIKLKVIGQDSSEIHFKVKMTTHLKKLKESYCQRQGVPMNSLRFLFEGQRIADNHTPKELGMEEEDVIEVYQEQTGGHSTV
# T3 sequence (P49327 whole entry, the tested form may be a part): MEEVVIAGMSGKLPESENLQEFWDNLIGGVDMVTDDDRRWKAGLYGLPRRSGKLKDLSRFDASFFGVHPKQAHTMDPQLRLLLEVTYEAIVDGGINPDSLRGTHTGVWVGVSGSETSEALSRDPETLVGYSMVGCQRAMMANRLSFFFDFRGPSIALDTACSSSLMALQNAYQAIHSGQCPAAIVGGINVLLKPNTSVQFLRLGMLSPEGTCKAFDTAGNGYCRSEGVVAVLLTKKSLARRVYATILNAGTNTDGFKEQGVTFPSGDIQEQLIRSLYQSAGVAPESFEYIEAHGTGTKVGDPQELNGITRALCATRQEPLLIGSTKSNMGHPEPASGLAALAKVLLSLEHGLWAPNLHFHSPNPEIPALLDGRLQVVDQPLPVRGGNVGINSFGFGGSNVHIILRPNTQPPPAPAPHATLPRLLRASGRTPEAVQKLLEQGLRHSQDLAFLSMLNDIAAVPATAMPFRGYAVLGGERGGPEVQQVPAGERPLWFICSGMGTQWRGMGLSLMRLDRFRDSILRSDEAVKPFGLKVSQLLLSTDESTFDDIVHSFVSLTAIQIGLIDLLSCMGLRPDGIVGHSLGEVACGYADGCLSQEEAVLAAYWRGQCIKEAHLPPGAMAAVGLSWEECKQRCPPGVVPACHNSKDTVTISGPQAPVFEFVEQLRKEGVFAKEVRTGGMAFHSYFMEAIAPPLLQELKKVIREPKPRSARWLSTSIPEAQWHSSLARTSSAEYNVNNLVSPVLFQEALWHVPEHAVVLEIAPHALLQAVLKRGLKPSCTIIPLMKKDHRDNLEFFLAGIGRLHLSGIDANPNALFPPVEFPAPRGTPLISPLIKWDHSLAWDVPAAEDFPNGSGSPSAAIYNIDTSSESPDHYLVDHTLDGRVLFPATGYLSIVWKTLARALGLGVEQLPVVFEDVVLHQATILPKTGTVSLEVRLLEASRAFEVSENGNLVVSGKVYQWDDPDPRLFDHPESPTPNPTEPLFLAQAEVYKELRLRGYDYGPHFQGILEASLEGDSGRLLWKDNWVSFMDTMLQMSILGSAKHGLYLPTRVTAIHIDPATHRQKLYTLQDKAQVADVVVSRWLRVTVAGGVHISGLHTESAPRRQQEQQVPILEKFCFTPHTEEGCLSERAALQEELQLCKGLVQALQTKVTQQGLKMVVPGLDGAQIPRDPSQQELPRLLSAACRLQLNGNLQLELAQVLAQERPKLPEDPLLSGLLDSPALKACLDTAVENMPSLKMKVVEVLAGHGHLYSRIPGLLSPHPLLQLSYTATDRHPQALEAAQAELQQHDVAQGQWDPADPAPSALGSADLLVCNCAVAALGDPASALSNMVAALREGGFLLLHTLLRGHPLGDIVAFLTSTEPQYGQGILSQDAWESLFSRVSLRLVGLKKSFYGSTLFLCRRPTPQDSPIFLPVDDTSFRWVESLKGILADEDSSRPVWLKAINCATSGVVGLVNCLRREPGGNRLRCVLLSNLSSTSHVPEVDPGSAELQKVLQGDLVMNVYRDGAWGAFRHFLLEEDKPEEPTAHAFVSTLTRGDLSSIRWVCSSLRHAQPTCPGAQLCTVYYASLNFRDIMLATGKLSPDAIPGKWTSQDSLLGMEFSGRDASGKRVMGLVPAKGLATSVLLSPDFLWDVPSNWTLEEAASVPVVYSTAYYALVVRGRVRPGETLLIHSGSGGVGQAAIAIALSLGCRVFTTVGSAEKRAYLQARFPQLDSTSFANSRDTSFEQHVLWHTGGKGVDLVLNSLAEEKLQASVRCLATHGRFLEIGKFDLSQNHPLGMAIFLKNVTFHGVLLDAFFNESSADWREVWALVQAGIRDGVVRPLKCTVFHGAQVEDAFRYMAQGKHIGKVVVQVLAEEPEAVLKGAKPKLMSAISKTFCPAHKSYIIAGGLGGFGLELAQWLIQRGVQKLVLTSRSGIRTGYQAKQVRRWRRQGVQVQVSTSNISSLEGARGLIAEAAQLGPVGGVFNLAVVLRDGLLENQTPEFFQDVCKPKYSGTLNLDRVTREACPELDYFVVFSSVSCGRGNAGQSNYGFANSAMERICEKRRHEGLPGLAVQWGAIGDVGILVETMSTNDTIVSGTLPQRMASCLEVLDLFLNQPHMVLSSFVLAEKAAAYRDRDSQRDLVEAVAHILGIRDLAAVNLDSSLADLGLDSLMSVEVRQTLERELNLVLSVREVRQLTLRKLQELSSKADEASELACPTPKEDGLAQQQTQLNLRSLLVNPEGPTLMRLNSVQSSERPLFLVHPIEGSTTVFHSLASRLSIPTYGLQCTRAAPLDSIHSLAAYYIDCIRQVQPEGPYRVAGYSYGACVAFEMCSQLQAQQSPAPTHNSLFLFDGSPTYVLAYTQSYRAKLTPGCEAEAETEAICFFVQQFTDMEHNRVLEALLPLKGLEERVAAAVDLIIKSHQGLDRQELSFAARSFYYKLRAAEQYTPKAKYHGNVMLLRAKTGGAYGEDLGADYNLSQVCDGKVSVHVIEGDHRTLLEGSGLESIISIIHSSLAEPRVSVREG
# T1 sequence (P61956 whole entry): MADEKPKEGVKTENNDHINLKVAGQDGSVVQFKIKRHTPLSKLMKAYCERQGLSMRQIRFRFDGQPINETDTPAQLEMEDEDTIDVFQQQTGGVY
# NS3, sequence (A3EZJ3 whole entry): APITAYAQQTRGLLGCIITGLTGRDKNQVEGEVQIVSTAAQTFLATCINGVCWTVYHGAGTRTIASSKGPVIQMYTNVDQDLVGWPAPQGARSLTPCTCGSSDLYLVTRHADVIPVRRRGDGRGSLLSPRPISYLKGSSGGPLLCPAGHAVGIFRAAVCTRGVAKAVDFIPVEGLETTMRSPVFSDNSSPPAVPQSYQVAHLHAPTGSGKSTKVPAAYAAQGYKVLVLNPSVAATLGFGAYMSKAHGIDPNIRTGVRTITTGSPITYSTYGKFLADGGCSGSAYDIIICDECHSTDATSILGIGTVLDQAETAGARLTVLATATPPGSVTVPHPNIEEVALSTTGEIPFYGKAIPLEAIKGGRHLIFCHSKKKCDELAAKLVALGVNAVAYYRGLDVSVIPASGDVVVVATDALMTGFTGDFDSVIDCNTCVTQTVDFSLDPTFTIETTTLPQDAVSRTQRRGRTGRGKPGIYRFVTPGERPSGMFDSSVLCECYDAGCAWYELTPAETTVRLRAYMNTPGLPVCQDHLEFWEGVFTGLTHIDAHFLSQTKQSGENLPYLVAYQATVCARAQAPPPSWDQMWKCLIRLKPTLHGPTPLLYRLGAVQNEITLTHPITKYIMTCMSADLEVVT
# Genome polyprotein, sequence (P29990 2492-3391 limits assumed): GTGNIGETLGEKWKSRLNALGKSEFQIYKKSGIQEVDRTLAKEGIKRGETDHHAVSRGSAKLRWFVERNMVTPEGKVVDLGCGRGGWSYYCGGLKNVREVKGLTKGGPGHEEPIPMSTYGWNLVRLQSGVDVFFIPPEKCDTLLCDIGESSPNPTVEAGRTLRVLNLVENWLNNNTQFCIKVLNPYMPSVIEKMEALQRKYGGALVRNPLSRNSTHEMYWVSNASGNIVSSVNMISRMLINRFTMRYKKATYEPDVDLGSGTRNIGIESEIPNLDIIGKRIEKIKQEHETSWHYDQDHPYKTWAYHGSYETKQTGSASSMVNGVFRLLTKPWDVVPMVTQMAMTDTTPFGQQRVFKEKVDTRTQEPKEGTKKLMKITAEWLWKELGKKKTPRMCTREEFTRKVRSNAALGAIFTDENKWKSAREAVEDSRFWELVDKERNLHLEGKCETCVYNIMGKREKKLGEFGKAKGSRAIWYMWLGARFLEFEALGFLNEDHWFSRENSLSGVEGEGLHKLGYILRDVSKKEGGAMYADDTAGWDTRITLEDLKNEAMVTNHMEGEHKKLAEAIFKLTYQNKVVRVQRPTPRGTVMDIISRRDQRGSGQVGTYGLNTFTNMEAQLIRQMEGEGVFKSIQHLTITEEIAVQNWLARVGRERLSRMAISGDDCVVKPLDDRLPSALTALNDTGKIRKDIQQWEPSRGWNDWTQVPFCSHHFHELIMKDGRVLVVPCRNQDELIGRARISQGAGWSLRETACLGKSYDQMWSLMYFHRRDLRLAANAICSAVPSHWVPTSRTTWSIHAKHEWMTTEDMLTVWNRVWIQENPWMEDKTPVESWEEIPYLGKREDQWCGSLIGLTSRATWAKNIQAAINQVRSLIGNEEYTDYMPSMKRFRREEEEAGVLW
smiles,measurement,setting,value
CCOc1ccc(S(=O)(=O)Nc2ccc(F)cc2)c(C)c1C,IC50,[1],> 69.5 µM (inactive)
same,IC50,[2],> 7.72 µM (active)
Cc1ccccc1C1=C/C(=C(\SS/C(C(=O)c2ccc(OCC(=O)O)c(Cl)c2Cl)=C2\C=C(c3ccccc3C)SS2)C(=O)c2ccc(OCC(=O)O)c(Cl)c2Cl)SS1,AC50,ORF 73,63.2 µM (active)
same,IC50,Nonstructural protein 1,16.1 µM (active)
same,IC50,Genome polyprotein,9.25 µM (active)
same,IC50,[3],1.51 µM (active)
same,IC50,[4],2.48 µM (active)
same,IC50,[5],2.65 µM (active)
same,IC50,Fatty acid synthase [6],8.12 µM (active)
same,IC50,[7],50.2 µM (inactive)
same,IC50,[8],9.29 µM (active)
same,IC50,[9],56.9 µM (active)
same,IC50,[10],61.1 µM (active)
same,IC50,Fatty acid synthase [11],6.62 µM (active)
same,IC50,[12],22.7 µM (inactive)
same,AC50,[13],6.35 µM (active)
Cc1ccc(NC(=S)N/N=C2/CCCCc3ccccc32)cc1,IC50,[14],> 66 µM (inactive)
same,IC50,[15],> 66 µM (inactive)
same,IC50,[16],> 122 µM (inactive)
O=C(C[C@@H]1CC[C@H]2[C@@H](COC[C@H](O)CN2Cc2ccc(Oc3ccccc3)cc2)O1)Nc1nccs1,AC50,HeLa,43.9 µM (active)
same,AC50,HEK293,7.07 µM (active)
same,AC50,[17],7.07 µM (active)
C[C@H]1CCCCO[C@H](CN(C)C(=O)Nc2ccc(C(F)(F)F)cc2)[C@@H](C)CN([C@@H](C)CO)C(=O)c2cc(NC(=O)C3CCCCC3)ccc2O1,AC50,A549,20.8 µM (active)
Cc1ccc(N2C(=O)NC(=O)/C(=C/c3ccc(-c4cccc(C(=O)O)c4)o3)C2=O)cc1,IC50,NS3,14.8 µM (inactive)
CN(C)CC#Cc1cccc(-c2nc(C(=O)N[C@@H]3CCN(Cc4ccccc4)C3)cc3c2[C@@H](CCO)N([S+]([O-])C(C)(C)C)C3)c1 (some centres not stated),AC50,[18],0.0256 µM (active)
C[C@H]1CCCCO[C@@H](CN(C)C(=O)Nc2ccc3c(c2)OCO3)[C@@H](C)CN([C@@H](C)CO)C(=O)c2cc(NC(=O)NC3CCCCC3)ccc2O1,AC50,[19],35.3 µM (active)
same,AC50,[20],16.9 µM (active)
